Paper PMC7041945, “Misfolded proteins bind and activate death receptor 5 to trigger apoptosis during unresolved endoplasmic reticulum stress” (eLife, 2020)

Tested on: CHOP, BiP, and DR5 mRNA in HCT116 cells
Experiment: qPCR of UPR target transcripts (CHOP, BiP, DR5)
Type: cell-based, Homo sapiens
Conditions: for 2^-(deltaCq) CHOP / 2^-(deltaCq) DR5 total / Cq CHOP / Cq DR5 total / Cq(sample) - avg Cq(GAPDH), CHOP / Cq(sample) - avg Cq(GAPDH), DR5 total / avg. fold induction CHOP / avg. fold induction DR5 total / fold induction CHOP / fold induction DR5 total: Rep 2; for avg. fold induction CHOP / avg. fold induction DR5 total / fold induction CHOP / fold induction DR5 total: vs 24 hr cytoGFP (empty traffo)
Experimental: Cells were grown in 6-well plates and harvested with 0.5 ml of TRIzol reagent (Life Technologies) per manufacturer’s protocol to extract RNA. For cDNA synthesis, 500 ng of total RNA was reverse transcribed with 2 μl of the SuperScript VILO master mix (Life Technologies # 11755050) in a total reaction volume of 10 μl following the manufacturer’s protocol for reaction temperature and duration. The reverse transcription product was diluted to 200 μl with 10 mM Tris-HCl pH 8.2 and used at 1:100 dilution for subsequent RT-PCR reactions.
PCR samples were prepared as described by manufacturer’s protocols from iQ SYBR Green Supermix (BioRad #17088800).
For each experiment, qRT-PCR reactions were set up in triplicate and run using a CFX96 Real Time System (Bio-Rad). Quantitation cycles were determined with CFX Manager 3.0 software (Bio-Rad) and then normalized to GAPDH as an internal control.

[1] = 1000 ng plasmid, sheet Rep 1, mean of 3 replicates

RHO-GFP: GFP-tagged rhodopsin expressed from plasmid
2^-(deltaCq) for GFP norm to GAPDH, avg (1000 ng plasmid, sheet Rep 1, mean): 55.6234
BiP avg fold induction relative to empty traffo [1]: 1.525
CHOP avg fold induction relative to empty traffo [1]: 2.086
DR5 total avg fold induction relative to empty traffo [1]: 1.336
GAPDH avg fold induction relative to empty traffo [1]: 1.003
2^-(deltaCq) CHOP (3 hr, replicate 1): 0.04356
2^-(deltaCq) DR5 total (3 hr, replicate 1): 0.02287
Cq CHOP (3 hr, replicate 1): 24.2586
Cq DR5 total (3 hr, replicate 1): 25.1882
Cq(sample) - avg Cq(GAPDH), CHOP (3 hr, replicate 1): 4.521
Cq(sample) - avg Cq(GAPDH), DR5 total (3 hr, replicate 1): 5.45
2^-(deltaCq) CHOP (3 hr, replicate 2): 0.03694
2^-(deltaCq) DR5 total (3 hr, replicate 2): 0.02336
Cq CHOP (3 hr, replicate 2): 24.4965
Cq DR5 total (3 hr, replicate 2): 25.1574
Cq(sample) - avg Cq(GAPDH), CHOP (3 hr, replicate 2): 4.759
Cq(sample) - avg Cq(GAPDH), DR5 total (3 hr, replicate 2): 5.42
2^-(deltaCq) CHOP (3 hr, replicate 3): 0.03617
2^-(deltaCq) DR5 total (3 hr, replicate 3): 0.01987
Cq CHOP (3 hr, replicate 3): 24.5271
Cq DR5 total (3 hr, replicate 3): 25.391
Cq(sample) - avg Cq(GAPDH), CHOP (3 hr, replicate 3): 4.789
Cq(sample) - avg Cq(GAPDH), DR5 total (3 hr, replicate 3): 5.653
avg. fold induction CHOP (3 hr, mean of 3 replicates): 1.784
avg. fold induction DR5 total (3 hr, mean of 3 replicates): 0.7693
fold induction CHOP (3 hr, replicate 1): 1.9981
fold induction DR5 total (3 hr, replicate 1): 0.7985
fold induction CHOP (3 hr, replicate 2): 1.694
fold induction DR5 total (3 hr, replicate 2): 0.8157
fold induction CHOP (3 hr, replicate 3): 1.659
fold induction DR5 total (3 hr, replicate 3): 0.6938
2^-(deltaCq) CHOP (7 hr, replicate 1): 0.1012
2^-(deltaCq) DR5 total (7 hr, replicate 1): 0.0421
Cq CHOP (7 hr, replicate 1): 22.9621
Cq DR5 total (7 hr, replicate 1): 24.2279
Cq(sample) - avg Cq(GAPDH), CHOP (7 hr, replicate 1): 3.304
Cq(sample) - avg Cq(GAPDH), DR5 total (7 hr, replicate 1): 4.57
2^-(deltaCq) CHOP (7 hr, replicate 2): 0.09032
2^-(deltaCq) DR5 total (7 hr, replicate 2): 0.04029
Cq CHOP (7 hr, replicate 2): 23.1268
Cq DR5 total (7 hr, replicate 2): 24.2914
Cq(sample) - avg Cq(GAPDH), CHOP (7 hr, replicate 2): 3.4688
Cq(sample) - avg Cq(GAPDH), DR5 total (7 hr, replicate 2): 4.633
2^-(deltaCq) CHOP (7 hr, replicate 3): 0.09401
2^-(deltaCq) DR5 total (7 hr, replicate 3): 0.03735
Cq CHOP (7 hr, replicate 3): 23.069
Cq DR5 total (7 hr, replicate 3): 24.4008
Cq(sample) - avg Cq(GAPDH), CHOP (7 hr, replicate 3): 3.411
Cq(sample) - avg Cq(GAPDH), DR5 total (7 hr, replicate 3): 4.743
avg. fold induction CHOP (7 hr, mean of 3 replicates): 4.366
avg. fold induction DR5 total (7 hr, mean of 3 replicates): 1.393
fold induction CHOP (7 hr, replicate 1): 4.643
fold induction DR5 total (7 hr, replicate 1): 1.47
fold induction CHOP (7 hr, replicate 2): 4.143
fold induction DR5 total (7 hr, replicate 2): 1.407
fold induction CHOP (7 hr, replicate 3): 4.312
fold induction DR5 total (7 hr, replicate 3): 1.304
2^-(deltaCq) CHOP (24 hr, replicate 1): 0.04125
2^-(deltaCq) DR5 total (24 hr, replicate 1): 0.04254
Cq CHOP (24 hr, replicate 1): 23.6176
Cq DR5 total (24 hr, replicate 1): 23.5731
Cq(sample) - avg Cq(GAPDH), CHOP (24 hr, replicate 1): 4.6
Cq(sample) - avg Cq(GAPDH), DR5 total (24 hr, replicate 1): 4.555
2^-(deltaCq) CHOP (24 hr, replicate 2): 0.03991
2^-(deltaCq) DR5 total (24 hr, replicate 2): 0.04129
Cq CHOP (24 hr, replicate 2): 23.6651
Cq DR5 total (24 hr, replicate 2): 23.6162
Cq(sample) - avg Cq(GAPDH), CHOP (24 hr, replicate 2): 4.647
Cq(sample) - avg Cq(GAPDH), DR5 total (24 hr, replicate 2): 4.598
2^-(deltaCq) CHOP (24 hr, replicate 3): 0.039
2^-(deltaCq) DR5 total (24 hr, replicate 3): 0.03658
Cq CHOP (24 hr, replicate 3): 23.6985
Cq DR5 total (24 hr, replicate 3): 23.7909
Cq(sample) - avg Cq(GAPDH), CHOP (24 hr, replicate 3): 4.681
Cq(sample) - avg Cq(GAPDH), DR5 total (24 hr, replicate 3): 4.773
avg. fold induction CHOP (24 hr, mean of 3 replicates): 1.837
avg. fold induction DR5 total (24 hr, mean of 3 replicates): 1.401
fold induction CHOP (24 hr, replicate 1): 1.892
